The results in this text go back to PubChem BioAssay (NCI).

Holding throughout (test): DTP human tumour cell line panel, 48 h
Assay [1] relates to ACHN renal.
Assay [2] relates to CAKI-1 renal.
Assay [3] has as its system HCT-116 colon.
The test system of assay [4] is K-562 leukemia.
The subject of assay [5] is MDA-MB-435.
Assay [6] concerns SK-MEL-2 melanoma.
The subject of assay [7] is SK-MEL-5 melanoma.
The subject of assay [8] is TK-10 renal.
Assay [9] relates to U251 CNS.
Assay [10] has as its system 786-0 renal.

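Method: 48-hour compound exposure of cells in 96-well plates, five concentrations, linear interpolation of endpoints. At the GI50, growth is halved. At the TGI there is no net growth.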 Where a SMILES comes first, the peptide text is derived from it. [ ]: non-standard residue; d: D form.

One may read the TGI as the concentration giving total growth inhibition. Take `O=c1c2cccnc2oc2c(Cl)cc(-c3nn[nH]n3)cc12`: the total growth inhibition concentration (TGI) in assay [1], in assay [2], in assay [3], in assay [4], in assay [5] and in assay [6] was over 100 µM each time. Moreover, the total growth inhibition concentration (TGI) in [7] and in assay [8] was over 100 µM throughout.

Turning to `CC(C)C[C@H](NC(=O)[C@H](CC(C)C)NC(=O)[C@@H](Cc1c[nH]c2ccccc12)NC(=O)[C@H](Cc1ccccc1)NC(=O)[C@@H](Cc1c[nH]c2ccccc12)NC(=O)[C@H](CCC(N)=O)NC(=O)[C@@H](CCC(N)=O)NC(=O)[C@@H]1CCCN1C(=O)[C@@H](CCCCN)NC(=O)[C@H]1CCCN1C(=O)[C@H](N)CCCN=C(N)N)C(N)=O` (H-[dR][dP][dK]P[dQ]Q[dW]F[dW]LL-NH2), the TGI in assay [3] is over 100 µM; in assay [4] it was over 100 µM; in [6], over 100 µM; in assay [7] it was over 100 µM; in assay [9], over 93.2 µM.

With `O=C1C(Cl)N(c2ccc([N+](=O)[O-])cc2)C1c1c[nH]c2ccccc12` (centres undefined), the TGI in assay [3], in [4], in assay [6], in [7], in assay [8] and in assay [9] was over 100 µM each time.

Consider `CCCCCCc1ccc(CCCCCCCC(=O)O)o1`, for which the TGI in assay [10] was over 100 µM; in assay [1] it was over 100 µM; in assay [2], over 100 µM; in assay [3], over 100 µM; in [4], 71.6 µM; in assay [5], over 100 µM. The concentration for total growth inhibition (TGI) in assay [6] and in assay [7] was over 100 µM in each case.

Take `CCOC(=O)c1sc2nc(SC)nc3c2c1NCN3C`: the total growth inhibition concentration (TGI) in assay [10] was 47.3 µM; in [1], 59.3 µM; in assay [2] it was over 100 µM; in [3], over 100 µM; in [5], over 100 µM; in assay [6], over 100 µM. The TGI in assay [7] was over 100 µM; in [8] it was over 100 µM; in [9], 46.9 µM.

Take `CC(C)OC1=C(CC2(C)OCCO2)C(=O)C12OCCO2`: the concentration for total growth inhibition (TGI) in [10], in assay [1], in assay [2], in assay [3], in assay [5] and in assay [6] was over 100 µM throughout. Besides, the concentration for total growth inhibition (TGI) in assay [7], in assay [8] and in assay [9] was over 100 µM in each case.

As usually defined, the GI50 is the concentration giving 50% growth inhibition. Regarding `Cc1ccc2sc3c(NCCCN)nc4ccccc4c3c(=O)c2c1`, the GI50 in assay [1] was 1.71 µM; in assay [2], 1.67 µM; in assay [3], 1.8 µM; in assay [4] it was 2 µM; in assay [5], 1.82 µM; in assay [6], 2.18 µM. For the same molecule, the GI50 in assay [7] was 1.79 µM; in assay [8], 1.81 µM. In addition, the TGI in [1] came out at 3.09 µM; in assay [2], 3.25 µM; in [3] it was 3.42 µM; in [4], 4.51 µM; in assay [5], 3.46 µM; in assay [6], 4.66 µM. For the same molecule, the total growth inhibition concentration (TGI) was found to be 3.35 µM in assay [7] and 3.52 µM in assay [8].

For `Oc1ccc(-c2nc3cc(C(F)(F)F)ccc3s2)cc1`, the TGI in assay [1] was 27.6 µM; in [2], 29.1 µM; in assay [3], 27.6 µM; in [4], over 100 µM; in [5], 29.5 µM; in assay [6] it was 30.1 µM. In addition, the total growth inhibition concentration (TGI) is 30 µM in assay [7], 33.1 µM in assay [8] and 30.5 µM in [9].

As for `Cc1cc(C)[n+]2c(c1)C=CC2`, the concentration for total growth inhibition (TGI) in assay [10] is over 100 µM; in assay [1], over 100 µM; in assay [2] it was over 100 µM; in assay [6], 93.8 µM; in [7] it was 43.1 µM; in [8], over 100 µM. In assay [9], this molecule displayed a concentration for total growth inhibition (TGI) of over 100 µM.

`OC(CCN1CCN(CCOC(c2ccccc2)c2ccccc2)CC1)c1ccccc1` (centres undefined): the TGI in assay [10] is 33.8 µM; in assay [1], over 100 µM; in [2], over 100 µM; in assay [3], 34.3 µM; in assay [5], 38.3 µM; in assay [6], 31.6 µM. Moreover, the values for the TGI in assay [7], in assay [8] and in assay [9] were 29.6 µM, 59.8 µM and 36 µM, respectively.

In the case of `O=c1oc2ccccc2c(O)c1C(c1ccc(OCc2ccccc2)cc1)c1c(O)c2ccccc2oc1=O`, the TGI was over 100 µM in [10]; 47.9 µM in assay [1]; 81.2 µM in assay [2]; over 100 µM in assay [3]; over 100 µM in assay [5]; over 100 µM in [6]. In addition, the TGI in [7] was 60.1 µM; in assay [8] it was over 100 µM; in [9], over 100 µM.

As for `CC1(C)CC(=O)c2c(N)n[nH]c2C1`, the concentration for total growth inhibition (TGI) in [10], in [1], in [2], in assay [3], in [4] and in assay [5] was over 100 µM throughout. Besides, the total growth inhibition concentration (TGI) in assay [6], in assay [7] and in [9] was over 100 µM throughout.

As for `COc1cc(C2c3cccc4cccc(c34)C3CCC(=O)N32)cc(OC)c1O` (centres undefined), the total growth inhibition concentration (TGI) in assay [10], in assay [1], in assay [3], in assay [4], in assay [5] and in assay [6] was over 50 µM in each case. Besides, the TGI in assay [9] was over 50 µM.

On to `O=C1Sc2ccccc2C(=O)N2CCSC12` (centres undefined), for which the TGI in assay [3], in assay [4], in [6], in [7], in [8] and in assay [9] was over 100 µM throughout.

For `CC(C)(C)OC(=O)N1C(=O)C2CCCC21` (centres undefined), the TGI in assay [10], in [1], in [3], in assay [5], in assay [6] and in assay [7] was over 100 µM each time. The concentration for total growth inhibition (TGI) in assay [9] is over 100 µM.
